# Entries after “also recorded” stand apart in the source; their conditions may differ.
# What was measured:
# [1] = Solubility determination at 25° C.
# myocardio ischemia mice = assay: T wave amplitude variation in pituitrin acute myocardial ischemia model; assay type: in vivo, Sprague-Dawley mice (SD mice)
# Excerpt: Embodiment 6: […] Pituitrin injection was purchased from Nanjing Xinbai Pharmaceutical Co., Ltd., normal saline injection from Nanjing Xiaoying Pharmaceutical Co., Ltd., and DMSO, PG, and anhydrous ethanol were of chromatographic class. […] The data were presented with, and tested with t. P<0.05 indicates substantial difference, P<0.01 indicates very substantial difference; and P<0.001 indicates extremely substantial difference.
structure (smiles),measurement,setting,value
"O=c1c(-c2ccc(O)cc2)coc2c([C@@H]3O[C@H](CO[C@]4(CO)O[C@H](CO)[C@@H](O)[C@@H]4O)[C@@H](O)[C@H](O)[C@H]3O)c(O)ccc12 [monofructosyl-β(2,6)-puerarin]",solubility,[1],26.0 mg/mL
same,solubility relative to puerarin,[1]; puerarin 5.2 g/L,5 times
same,T wave amplitude variation,"myocardio ischemia mice; 12.5 mg/kg, 15 s after Pit",0.082 ± 0.060 mv
same,T wave amplitude variation,"myocardio ischemia mice; 12.5 mg/kg, 30 s after Pit",0.097 ± 0.084 mv
same,T wave amplitude variation,"myocardio ischemia mice; 12.5 mg/kg, 1 min after Pit",0.051 ± 0.034 mv
same,T wave amplitude variation,"myocardio ischemia mice; 12.5 mg/kg, 2 min after Pit",0.102 ± 0.071 mv
same,T wave amplitude variation,"myocardio ischemia mice; 12.5 mg/kg, 5 min after Pit",0.069 ± 0.040 mv
same,T wave amplitude variation,"myocardio ischemia mice; 12.5 mg/kg, 10 min after Pit",0.068 ± 0.038 mv
same,T wave amplitude variation,"myocardio ischemia mice; 25 mg/kg, 15 s after Pit",0.053 ± 0.027 mv
same,T wave amplitude variation,"myocardio ischemia mice; 25 mg/kg, 30 s after Pit",0.105 ± 0.076 mv
same,T wave amplitude variation,"myocardio ischemia mice; 25 mg/kg, 1 min after Pit",0.116 ± 0.088 mv
same,T wave amplitude variation,"myocardio ischemia mice; 25 mg/kg, 2 min after Pit",0.112 ± 0.087 mv
same,T wave amplitude variation,"myocardio ischemia mice; 25 mg/kg, 5 min after Pit",0.067 ± 0.038 mv
same,T wave amplitude variation,"myocardio ischemia mice; 25 mg/kg, 10 min after Pit",0.054 ± 0.038 mv
same,T wave amplitude variation,"myocardio ischemia mice; 50 mg/kg, 15 s after Pit",0.092 ± 0.067 mv
same,T wave amplitude variation,"myocardio ischemia mice; 50 mg/kg, 30 s after Pit",0.118 ± 0.087 mv
same,T wave amplitude variation,"myocardio ischemia mice; 50 mg/kg, 1 min after Pit",0.109 ± 0.084 mv
same,T wave amplitude variation,"myocardio ischemia mice; 50 mg/kg, 2 min after Pit",0.106 ± 0.091 mv
same,T wave amplitude variation,"myocardio ischemia mice; 50 mg/kg, 5 min after Pit",0.080 ± 0.070 mv
same,T wave amplitude variation,"myocardio ischemia mice; 50 mg/kg, 10 min after Pit",0.082 ± 0.058 mv
same,effect against myocardial ischemia (T wave) in words,"myocardio ischemia mice; 12.5, 25 and 50 mg/kg, compared with puerarin",can better resist myocardial ischemia than puerarin; also recorded: has better effect to resist myocardio ischemia than puerarin
